Source: patent US7741344B2, “Process for preparing purified S-BEL and R-BEL and compositions thereof” (Washington University in St. Louis, priority 2002, dated 2010)
Where two headings read alike, the source gives them in different places.

Legend:
A-10 smooth muscle cells = conditions: prior studies (10, 29), cited from earlier work
[1] = tested on: magnesium-dependent cytozoic phosphatidate phosphohydrolase, PAP-1; conditions: 25 μM BEL; (33, 34); cited from earlier work
A-10 cells = conditions: cited from earlier work
[2] = tested on: cytosolic phosphatidate phosphohydrolase (PAP-1); assay: Cytosolic phosphatidate phosphohydrolase activity of A-10 cell cytosol fraction; type: biochemical, rat; conditions: concentrations up to 200 μM BEL; FIG. 6A
Procedure: Measurement of Cytosolic and Membrane-bound Phosphatidate Phosphohydrolase Activities—A-10 cells were grown to confluency, washed twice in ice-cold phosphate-buffered saline, and harvested in lysis buffer (50 mM Tris-HCl, pH 7.4 containing 0.25 M sucrose and 0.2 mM DTT). After brief sonication utilizing a Vibra-Cell VC4O sonicator (5×1 s pulses at 30% power), the lysed cell suspension was centrifuged at 100,000×g for 1 hr to separate cytosolic and membrane fractions. In some tests, A-10 cells were washed and pretreated with BEL or ethanol vehicle (as described above for tests examining [^3H]-AA liberation) before isolation of cell homogenates. […] Reactions were terminated with 900 μL of 5% acetic acid and extracted into chloroform by the method of Bligh and Dyer (38) prior to separating dipaliitoyl glycerol by TLC utilizing chloroform: methanol: water (65:35:2) as the mobile phase prior to quantification by scintillation spectrometry.
A-10 cells plated on 100 mm dishes were washed 2× in ice-cold PBS and harvested in lysis buffer (50 mM Tris-HCl, pH 7.4 containing 0.25 M sucrose and 0.2 mM DTT). […] In panel B, intact A-10 cells were washed and pretreated with BEL or ethanol vehicle (as described in FIG. 5) before isolation of the cell homogenate and quantification of phosphatidate phosphohydrolase activity as described above. […]

[3] = tested on: PAP-1 in mouse P388D1 macrophages; conditions: ≈25 μM; (33); cited from earlier work
P388D1 macrophages = conditions: up to 5 μM BEL; (15); cited from earlier work
[4] = tested on: cytosolic PAP-1 in McA-RH7777 rat hepatoma cells; conditions: 100 μM BEL; (17); cited from earlier work

O=C1OC(=CBr)CCC1c1cccc2ccccc12 (racemic) [rac-BEL, Racemic (E)-6-(bromomethylene)-3-(1-naphthalenyl)-2H-tetrahydropyran-2-one]
inhibition of AVP-inducible arachidonic acid release (A-10 smooth muscle cells; 2 μM BEL pretreatment): ≈ 60%
inhibition of AVP-inducible arachidonic acid release (A-10 smooth muscle cells; 5 μM BEL pretreatment): ~80%
inhibition of PAP-1 [1]: partially inhibit
release of IP2 or IP3 in A-10 cells (A-10 cells): does not inhibit
effect on cytosolic (PAP-1) phosphatidate phosphohydrolase [2]: lack of any effect
inhibition of PAP-1 in mouse P388D1 macrophages [3]: effectively inhibit
levels of diacylglycerol or phosphatidic acid formed upon stimulation with zymosan (P388D1 macrophages): does not significantly effect
inhibition of cytosolic PAP-1 activity in McA-RH7777 cells [4]: not significantly inhibited
